Legend:
Type in all cases: physicochemical
[1] = IC analysis of residual solid of phosphate crystalline form I (PO4 content, dissociation)
Description: IC analysis of the salts was performed by using a Thermo ICS-6000 instrument.

[2] = Dynamic vapor sorption (DVS) hygroscopicity
Description: The water vapor sorption/desorption data of the samples were collected on a dynamic vapor sorption instrument (proUmid GmbH & Co. KG, Germany). Approximately 50-70 mg of sample was placed in a sample pan previously tared and the weight of the sample was measured accurately.

[3] = Short-term physical stability of anhydrous crystal forms (40° C./75% RH, open, 1 day; XRPD)
Source text: In addition to the mesylate crystalline form I, the other anhydrous crystalline forms were stable under high humidity conditions.

[4] = Solubility analysis in biological solvents (SGF, FaSSIF, FeSSIF) and water, with pH and XRPD of residual solid; conditions: for Solubility: 37° C.
Description: (§1) HPLC analysis was performed by using an Agilent HPLC 1260 series instrument and the HPLC methods used for solubility and stability determinations were shown in Tables 33 and 34, respectively.

[5] = Solid state stability at 60° C. (closed) and 40° C./75% RH (open), XRPD and HPLC purity
Description: (closed) and 40° C./75 RH (open) for 14 days, XRPD analysis and purity analysis were performed at various points of time, and solid-state stability was evaluated.
as §1

For `Cc1c(C#Cc2cnc3ccc(N4CCC(O)CC4)nn23)cccc1C(=O)Nc1cc(Cl)cc(C(F)(F)F)c1` [Phosphate crystalline form I], the “dissociation of salt in solubility media (IC of residual solids)” value ([1]; FaSSIF and FeSSIF) was “dissociated to free base”, the Dissociation degree ([1]; FaSSIF, 0.5 h) was 91% and the “PO4^3− in residual solid” value ([1]; FaSSIF, 0.5 h) was 0.1 eq. The “XPRD Results Dry sample of residual solid” value ([1]; FaSSIF, 0.5 h) was “Amorphous”, the “XPRD Results Wet sample of residual solid” value ([1]; FaSSIF, 0.5 h) was “Form 1” and the Dissociation degree ([1]; FaSSIF, 2 h) was 97%. For the same compound, the “PO4^3− in residual solid” value ([1]; FaSSIF, 2 h) was 0.03 eq, the “XPRD Results Dry sample of residual solid” value ([1]; FaSSIF, 2 h) was “Amorphous” and the “XPRD Results Wet sample of residual solid” value ([1]; FaSSIF, 2 h) was “Form 1”. The Dissociation degree ([1]; FaSSIF, 24 h) was >99%, the “PO4^3− in residual solid” value ([1]; FaSSIF, 24 h) was <0.006 eq and the “XPRD Results Dry sample of residual solid” value ([1]; FaSSIF, 24 h) was “Form 3”. For the same compound, the “XPRD Results Wet sample of residual solid” value ([1]; FaSSIF, 24 h) was “Form 2”, the Dissociation degree ([1]; FeSSIF, 0.5 h) was >99% and the “PO4^3− in residual solid” value ([1]; FeSSIF, 0.5 h) was <0.006 eq. For the same compound, the “XPRD Results Dry sample of residual solid” value ([1]; FeSSIF, 0.5 h) was “Amorphous”, the “XPRD Results Wet sample of residual solid” value ([1]; FeSSIF, 0.5 h) was “Form 1” and the Dissociation degree ([1]; FeSSIF, 24 h) was 100%. For the same compound, the “PO4^3− in residual solid” value ([1]; FeSSIF, 24 h) was 0 eq, the “XPRD Results Dry sample of residual solid” value ([1]; FeSSIF, 24 h) was “Amorphous” and the “XPRD Results Wet sample of residual solid” value ([1]; FeSSIF, 24 h) was “Form 1”. The “crystalline form after DVS analysis (XRPD)” value [2] was “remained unchanged”, the “hygroscopicity (DVS)” value [2] was “slightly hygroscopic” and the “DVS The weight gains by vapor sorption %” value ([2]; 80% RH) was 1.3%. The “DVS The weight gains by vapor sorption %” value ([2]; 90% RH) was 1.6%, the “DVS The weight gains by vapor sorption %” value ([2]; 90% RH, listed as phosphate crystalline form I) was ~1.6% and the “XPRD Results after short-term physical stability” value [3] was “unchanged”. The “pH in solubility analysis” value ([4]; FaSSIF (medium pH 6.5), 0.5 h) was 5.7, the “pH in solubility analysis” value ([4]; FaSSIF (medium pH 6.5), 2 h) was 5.5 and the “pH in solubility analysis” value ([4]; FaSSIF (medium pH 6.5), 24 h) was 5.5. For the same compound, the solubility at 24 h ([4]; FaSSIF, 37 °C, pH 6.5, fassif, thermodynamic from solid, 24 h, target 5 mg/mL) was 22 µg/mL, the “XRPD of residual solid in solubility analysis” value (“XRPD of residual solid” for short) ([4]; FaSSIF, 0.5 h) was “Form 1” and the Solubility ([4]; FaSSIF, 0.5 h, target 5 mg/mL) was 57 µg/mL. For the same compound, the Solubility ([4]; FaSSIF, 0.5 h, target 5 mg/mL, listed as phosphate crystalline form I) was 57 µg/mL, the “XRPD of residual solid” value ([4]; FaSSIF, 0.5 h, listed as phosphate crystalline form I) was “Newform 1” and the Solubility ([4]; FaSSIF, 2 h, target 5 mg/mL) was 48 µg/mL. For the same compound, the Solubility ([4]; FaSSIF, 2 h, target 5 mg/mL, listed as phosphate crystalline form I) was 48 µg/mL, the “XRPD of residual solid” value ([4]; FaSSIF, 24 h) was “Form 2” and the “XRPD of residual solid” value ([4]; FaSSIF, 24 h, listed as phosphate crystalline form I) was “new form 2”. The “pH in solubility analysis” value ([4]; FeSSIF (medium pH 5.0), 0.5 h) was 4.9, the “pH in solubility analysis” value ([4]; FeSSIF (medium pH 5.0), 2 h) was 4.9 and the “pH in solubility analysis” value ([4]; FeSSIF (medium pH 5.0), 24 h) was 5.0. The “XRPD of residual solid” value ([4]; FeSSIF, 0.5 h) was “Form 1”, the Solubility ([4]; FeSSIF, 0.5 h, target 5 mg/mL) was 1029 µg/mL and the Solubility ([4]; FeSSIF, 0.5 h, target 5 mg/mL, listed as phosphate crystalline form I) was 1029 µg/mL. The “XRPD of residual solid” value ([4]; FeSSIF, 0.5 h, listed as phosphate crystalline form I) was “Newform 1”, the Solubility ([4]; FeSSIF, 2 h, target 5 mg/mL) was 1175 µg/mL and the Solubility ([4]; FeSSIF, 2 h, target 5 mg/mL, listed as phosphate crystalline form I) was 1175 µg/mL. For the same compound, the “XRPD of residual solid” value ([4]; FeSSIF, 24 h) was “Form 1”, the Solubility ([4]; FeSSIF, 24 h, target 5 mg/mL) was 1948 µg/mL and the Solubility ([4]; FeSSIF, 24 h, target 5 mg/mL, listed as phosphate crystalline form I) was 1948 µg/mL. The “pH in solubility analysis” value ([4]; SGF (medium pH 1.2), 0.5 h) was 1.2, the “pH in solubility analysis” value ([4]; SGF (medium pH 1.2), 2 h) was 1.4 and the “pH in solubility analysis” value ([4]; SGF (medium pH 1.2), 24 h) was 1.2. The Solubility ([4]; SGF, 0.5 h, target 5 mg/mL) was “<LOD”, the Solubility ([4]; SGF, 0.5 h, target 5 mg/mL, listed as phosphate crystalline form I) was “<LOD/<LOD/” and the Solubility ([4]; SGF, 2 h, target 5 mg/mL) was “<LOD”. For the same compound, the Solubility ([4]; SGF, 2 h, target 5 mg/mL, listed as phosphate crystalline form I) was “<LOD/<LOD/”, the “XRPD of residual solid” value ([4]; SGF, 24 h) was “amorphous” and the Solubility ([4]; SGF, 24 h, target 5 mg/mL) was “<LOD”. The “XRPD of residual solid” value ([4]; SGF, after 2 h) was “amorphous”, the “pH in solubility analysis” value ([4]; water (medium pH 6.6), 0.5 h) was 2.8 and the “pH in solubility analysis” value ([4]; water (medium pH 6.6), 2 h) was 2.7. The “pH in solubility analysis” value ([4]; water (medium pH 6.6), 24 h) was 2.6, the Solubility ([4]; water, 0.5 h, target 5 mg/mL) was “<LOD” and the Solubility ([4]; water, 0.5 h, target 5 mg/mL, listed as phosphate crystalline form I) was “<LOD/<LOD/”. The Solubility ([4]; water, 2 h, target 5 mg/mL) was “<LOD”, the Solubility ([4]; water, 2 h, target 5 mg/mL, listed as phosphate crystalline form I) was “<LOD/<LOD/” and the Solubility ([4]; water, 24 h, target 5 mg/mL) was “<LOD”. The “XRPD pattern of the residual solid in water” value ([4]; water, time not stated) was “an additional peak at 160 (20)”, the “Purity in stability evaluation” value ([5]; 0 d) was 98.78 Area % and the “Solid state stability-14 days” value ([5]; 60° C./Closed and 40° C./75% RH (Open), 14 days) was “physically and chemically stable”. The “Purity in stability evaluation” value ([5]; 7 d-40° C./75% RH) was 98.78 Area %, the “XRPD in stability evaluation” value ([5]; 7 d-40° C./75% RH) was “unchanged” and the “Purity in stability evaluation” value ([5]; 7 d-60° C./capped) was 98.78 Area %. The “XRPD in stability evaluation” value ([5]; 7 d-60° C./capped) was “unchanged”, the “Purity in stability evaluation” value ([5]; 14 d-40° C./75% RH) was 98.78 Area % and the “XRPD in stability evaluation” value ([5]; 14 d-40° C./75% RH) was “unchanged”. For the same compound, the “Purity in stability evaluation” value ([5]; 14 d-60° C./capped) was 98.78 Area % and the “XRPD in stability evaluation” value ([5]; 14 d-60° C./capped) was “unchanged”.

— patent US20260226060A1, “SALTS AND CRYSTALLINE FORMS OF COMPOUND A, METHODS OF PREPARATION, AND USES THEREOF” (SHENZHEN NEWDEL BIOTECH CO., LTD., priority 2023, published 2026)
